We go through 15 molecules from PMC4809247 (Journal of medicinal chemistry, 2015).

The structures appear in SMILES notation. Bounds are passed on as bounds.

Data set [1] addresses T1, rat mGlu5 (Rattus norvegicus, UniProt P31424). The data set is described as follows: Calcium mobilization mGlu5 assay. The data set is classed as cell-based. As to conditions: calcium mobilization; average of n ≥ 3 (n = 2 where marked). A general note: A change in cytosolic calcium serves as a functional read-out for many receptors and channels.
The nature of data set [2]: Intrinsic clearance in rat liver microsomes. As to conditions: predicted hepatic clearance based on intrinsic clearance in rat liver microsomes. The data set is classed as in vitro ADME.
For data set [3], the target named is T2, rat mGlu3 (Rattus norvegicus, UniProt P31422). As to conditions: calcium mobilization; average of n ≥ 3.
T2 sequence (P31422 23-879): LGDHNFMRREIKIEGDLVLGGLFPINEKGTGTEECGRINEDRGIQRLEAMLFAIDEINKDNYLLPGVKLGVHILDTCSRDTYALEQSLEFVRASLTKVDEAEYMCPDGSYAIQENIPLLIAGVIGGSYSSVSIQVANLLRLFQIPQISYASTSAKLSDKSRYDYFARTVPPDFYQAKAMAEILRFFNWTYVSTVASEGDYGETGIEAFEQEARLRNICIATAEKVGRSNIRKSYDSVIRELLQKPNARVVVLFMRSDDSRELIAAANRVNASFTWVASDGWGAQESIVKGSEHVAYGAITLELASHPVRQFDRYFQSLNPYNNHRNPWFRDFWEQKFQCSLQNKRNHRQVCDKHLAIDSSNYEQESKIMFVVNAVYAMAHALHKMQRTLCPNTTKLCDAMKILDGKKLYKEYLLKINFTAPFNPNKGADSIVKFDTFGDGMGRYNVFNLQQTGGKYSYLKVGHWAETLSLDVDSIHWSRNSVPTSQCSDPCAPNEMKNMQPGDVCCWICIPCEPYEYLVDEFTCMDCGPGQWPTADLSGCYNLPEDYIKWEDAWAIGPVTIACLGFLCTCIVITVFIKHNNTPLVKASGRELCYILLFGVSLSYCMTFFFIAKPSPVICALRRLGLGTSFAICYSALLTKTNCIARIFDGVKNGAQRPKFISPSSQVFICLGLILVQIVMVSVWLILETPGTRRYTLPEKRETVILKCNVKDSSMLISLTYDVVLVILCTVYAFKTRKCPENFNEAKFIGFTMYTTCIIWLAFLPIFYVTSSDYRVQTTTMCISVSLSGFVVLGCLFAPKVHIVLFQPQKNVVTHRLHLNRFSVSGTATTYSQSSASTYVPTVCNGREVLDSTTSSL
A further data set concerns other mGlus. The data set is classed as cell-based. As to conditions: 10 μM compound, fold-shift experiments.
The next data set is described as follows: Mouse IP PK time course. The data set is classed as in vivo. As to conditions: 10 mg/kg dose in marble burying study, estimated from DMPK data.
For data set [4], the system named is marble burying. The data set is described as follows: Marble burying assay in mice. Conditions: 56.6 mg/kg; male CD-1 mice; 15 min pretreatment.
The test system of data set [5] is immobility time. The data set is described as follows: Forced swim test. The data set is classed as in vivo, rat. Conditions: 56.6 mg/kg (highest dose); male Sprague–Dawley rats; 30 min pretreatment; 6 min session; p < 0.05 vs vehicle.
Data set [6] addresses T3, rat mGlu2 (Rattus norvegicus, UniProt P31421). The data set is described as follows: mGlu2 calcium mobilization assay. As to conditions: full CRC. The data set is classed as cell-based.
For data set [7], the system named is panel of 68 clinically relevant GPCRs, ion channels, kinases, and transporters. The data set is classed as binding. As to conditions: 10 μM; 68 targets.
Data set [8] is described as follows: Mouse IP single time point tissue distribution. As to conditions: in vivo, 10 mg/kg, plasma concentration, 30 min post dose, n = 3.
For a further data set, the target named is 5-HT2B (Homo sapiens, UniProt P41595). The data set is described as follows: 5-HT2B functional cell-based assay. Conditions: agonist or antagonist.
5-HT2B, sequence (P41595 whole entry, species assumed): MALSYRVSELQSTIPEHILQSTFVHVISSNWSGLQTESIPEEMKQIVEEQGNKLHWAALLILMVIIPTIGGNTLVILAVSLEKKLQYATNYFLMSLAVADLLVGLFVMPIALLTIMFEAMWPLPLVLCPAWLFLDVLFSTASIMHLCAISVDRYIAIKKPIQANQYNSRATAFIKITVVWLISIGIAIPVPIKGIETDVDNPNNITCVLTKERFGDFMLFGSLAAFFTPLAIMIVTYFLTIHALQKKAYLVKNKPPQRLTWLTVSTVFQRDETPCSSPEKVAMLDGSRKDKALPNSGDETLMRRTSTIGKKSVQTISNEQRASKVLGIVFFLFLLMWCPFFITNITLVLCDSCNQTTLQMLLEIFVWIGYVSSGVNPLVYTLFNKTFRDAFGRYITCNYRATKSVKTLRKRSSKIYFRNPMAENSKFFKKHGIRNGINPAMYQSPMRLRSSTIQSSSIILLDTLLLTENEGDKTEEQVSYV
Data set [9] addresses T3, rat mGlu2. As to conditions: cited from earlier work.
A short description of data set [10]: Rat cassette PK study, IV dosing. Conditions: in vivo, 0.2 mg/kg.
The test system of data set [11] is immobility time. Conditions: cited from earlier work.
Data set [12] deals with marble burying. Conditions: cited from earlier work.
The target of data set [13] is T2, rat mGlu3. The data set is described as follows: cell-based.
The target in a further data set is mGlu3 (Rattus norvegicus, UniProt P31422). As to conditions: multiple concentrations of compound.
mGlu3, sequence (P31422 23-879): as the sequence (P31422 23-879) above
Data set [14] concerns the target T1, rat mGlu5. Conditions: cited from earlier work.

T1 sequence (P31424 21-1203): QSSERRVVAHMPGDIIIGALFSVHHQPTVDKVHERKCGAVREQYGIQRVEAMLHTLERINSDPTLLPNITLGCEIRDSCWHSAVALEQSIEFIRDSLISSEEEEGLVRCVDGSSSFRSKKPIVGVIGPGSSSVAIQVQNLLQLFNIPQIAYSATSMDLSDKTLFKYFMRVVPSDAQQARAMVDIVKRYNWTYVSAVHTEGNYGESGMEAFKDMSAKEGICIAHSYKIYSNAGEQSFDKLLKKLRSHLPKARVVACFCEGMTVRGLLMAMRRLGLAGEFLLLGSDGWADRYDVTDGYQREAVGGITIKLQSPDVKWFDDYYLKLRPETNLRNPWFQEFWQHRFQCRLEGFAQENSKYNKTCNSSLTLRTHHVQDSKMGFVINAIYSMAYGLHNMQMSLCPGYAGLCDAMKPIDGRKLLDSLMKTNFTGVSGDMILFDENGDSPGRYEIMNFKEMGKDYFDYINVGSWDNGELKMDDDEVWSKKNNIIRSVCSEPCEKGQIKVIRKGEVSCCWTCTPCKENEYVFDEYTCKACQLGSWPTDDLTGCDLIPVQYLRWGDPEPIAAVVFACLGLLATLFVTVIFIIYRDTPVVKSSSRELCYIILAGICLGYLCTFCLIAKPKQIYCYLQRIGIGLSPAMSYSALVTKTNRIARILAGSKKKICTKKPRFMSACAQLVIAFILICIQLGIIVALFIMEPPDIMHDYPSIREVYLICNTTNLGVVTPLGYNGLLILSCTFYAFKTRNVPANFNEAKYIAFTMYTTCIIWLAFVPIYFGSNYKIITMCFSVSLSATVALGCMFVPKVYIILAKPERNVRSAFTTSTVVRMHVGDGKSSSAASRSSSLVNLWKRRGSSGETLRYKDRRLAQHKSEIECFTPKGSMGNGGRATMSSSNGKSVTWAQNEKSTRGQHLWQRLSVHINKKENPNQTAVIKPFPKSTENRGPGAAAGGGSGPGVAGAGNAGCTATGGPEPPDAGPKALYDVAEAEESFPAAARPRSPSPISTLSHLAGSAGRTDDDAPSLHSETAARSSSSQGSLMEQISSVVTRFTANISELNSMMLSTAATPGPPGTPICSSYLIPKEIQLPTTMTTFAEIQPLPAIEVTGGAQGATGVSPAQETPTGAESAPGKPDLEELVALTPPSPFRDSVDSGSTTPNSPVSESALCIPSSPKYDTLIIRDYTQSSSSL
T3 sequence (P31421 19-872): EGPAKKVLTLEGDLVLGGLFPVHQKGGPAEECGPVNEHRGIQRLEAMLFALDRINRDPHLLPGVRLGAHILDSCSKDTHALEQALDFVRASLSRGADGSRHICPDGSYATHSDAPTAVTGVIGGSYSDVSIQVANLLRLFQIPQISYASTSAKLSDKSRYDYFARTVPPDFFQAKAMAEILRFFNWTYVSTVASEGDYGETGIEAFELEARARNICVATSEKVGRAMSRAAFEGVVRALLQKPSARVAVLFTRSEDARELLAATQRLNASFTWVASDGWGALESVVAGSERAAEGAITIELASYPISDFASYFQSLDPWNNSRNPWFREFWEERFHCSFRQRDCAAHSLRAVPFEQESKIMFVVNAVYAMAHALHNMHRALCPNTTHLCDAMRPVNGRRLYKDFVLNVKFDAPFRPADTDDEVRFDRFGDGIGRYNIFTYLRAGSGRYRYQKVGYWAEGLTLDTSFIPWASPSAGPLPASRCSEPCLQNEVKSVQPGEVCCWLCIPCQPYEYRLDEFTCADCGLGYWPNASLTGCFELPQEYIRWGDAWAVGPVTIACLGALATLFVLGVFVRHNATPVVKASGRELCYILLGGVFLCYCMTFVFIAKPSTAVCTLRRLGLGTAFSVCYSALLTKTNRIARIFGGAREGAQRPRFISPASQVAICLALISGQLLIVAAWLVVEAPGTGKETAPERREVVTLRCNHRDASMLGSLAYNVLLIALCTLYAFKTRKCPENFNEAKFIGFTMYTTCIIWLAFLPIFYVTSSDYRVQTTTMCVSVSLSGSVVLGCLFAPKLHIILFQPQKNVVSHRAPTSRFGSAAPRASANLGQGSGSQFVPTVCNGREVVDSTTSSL

With `C[C@@H]1CN(c2cncc(C#N)c2)C(=O)c2cc(COc3ccc(Cl)cn3)nn21` [Compound 109], the “mGlu5 pEC50 (± SEM)” value on rat mGlu5 [1] is less than 4.5. In [2], the “rat CLhep” value is reported as 22.8 mL/min/kg. Moreover, at rat mGlu3 [3], the “mGlu3 pIC50 (± SEM)” value was 6.22 ± 0.01.

For the molecule `C[C@@H]1CN(c2cccnc2F)C(=O)c2cc(COc3ccc(Cl)cn3)nn21` [Compound 106, (R)-2-(((5-Chloropyridin-2-yl)oxy)methyl)-5-(2-fluoropyridin-3-yl)-7-methyl-6,7-dihydropyrazolo[1,5-a]pyrazin-4(5H)-one], the “mGlu5 pEC50 (± SEM)” value on rat mGlu5 [1] is given as less than 4.5. The “effect on the orthosteric agonist CRC, other mGlus” value in the data set on other mGlus is “No significant effect”. Also, the “estimated peak CNS unbound exposure” value in “Mouse IP PK time course” is 564 nM. In addition, the “inhibition of marble burying at highest dose” value with marble burying [4] is recorded as “essentially complete inhibition”. For the same molecule, in the data set on immobility time [5], the “decrease in immobility time in FST” value was “significant effects in decreasing immobility time”. Moreover, the “mGlu2: inactive up to the top concentration tested” value on rat mGlu2 [6] is more than 30 µM. In addition, in [7], the “significant responses (>50% inhibition of radioligand binding) in panel” value was “only a single significant response”. For the same molecule, the concentration at 30 min in [8] came out at 2590 ± 290 nM. Moreover, the “5-HT2B functional activity: no activity up to” value at 5-HT2B is more than 10 µM. In addition, the “mGlu3 pIC50 (± SEM)” value on rat mGlu3 [3] is 6.41 ± 0.05.

For `COc1ccc(C#Cc2ccc(C(=O)N3CCC[C@@H](CO)C3)cc2)cc1` [Compound 7], on rat mGlu2 [9], the “selectivity versus mGlu2” value was more than 15 fold.

`C[C@@H]1CN(c2ccc(F)cc2)C(=O)c2cc(COc3ccc(F)cc3)nn21` [Compound 24]: at rat mGlu5 [1], the “mGlu5 pEC50 (± SEM)” value is on record as 7.03 ± 0.05. Further, on rat mGlu3 [3], the “mGlu3 pIC50 (± SEM)” value is given as 6.34 ± 0.04. This molecule came in with a half-life in data set [10] of more than 90 min.

Take `C[C@@H]1CN(c2cnccc2F)C(=O)c2cc(COc3ccc(Cl)cn3)nn21` [Compound 107]: the “mGlu5 pEC50 (± SEM)” value at rat mGlu5 [1] was less than 4.5. Moreover, the “rat CLhep” value in [2] is 36.0 mL/min/kg. In addition, the “mGlu3 pIC50 (± SEM)” value at rat mGlu3 [3] amounted to 6.32 ± 0.03.

`N[C@](CC1c2ccccc2Oc2ccccc21)(C(=O)O)[C@H]1C[C@@H]1C(=O)O` [Compound 1]: the “efficacy in FST” value in the data set on immobility time [11] is listed as “efficacy”. The “inhibition of marble burying” value in the data set with marble burying [12] is reported as “previously shown to inhibit marble burying”.

As for `C[C@@H]1CN(c2cccnc2)C(=O)c2cc(COc3ccc(Cl)cn3)nn21` [Compound 101], the “mGlu5 pEC50 (± SEM)” value at rat mGlu5 [1] was less than 4.5. In [2], the “rat CLhep” value is 42.0 mL/min/kg. The “mGlu3 pIC50 (± SEM)” value at rat mGlu3 [3] was 6.22 ± 0.10.

In the case of `C[C@@H]1CN(c2cc(F)cc(C#N)c2)C(=O)c2cc(COc3ccc(Cl)cn3)nn21` [Compound 99], the “rat CLhep” value in [2] is recorded as 47.7 mL/min/kg. At rat mGlu3 [13], this molecule had an IC50 of 529 nM. In data set [10], the half-life is more than 180 min.

`C[C@@H]1CN(c2ccc(F)cc2)C(=O)c2cc(COc3ccccn3)nn21` [Compound 10]: the “mGlu2: inactive up to the top concentration tested” value at rat mGlu2 [6] is more than 30 µM.

On to `C[C@@H]1CN(c2cncc(F)c2)C(=O)c2cc(COc3ccc(Cl)cn3)nn21` [Compound 108], for which, on rat mGlu5 [1], the “mGlu5 pEC50 (± SEM)” value is less than 4.5. For the same molecule, the “rat CLhep” value in data set [2] is given as 26.6 mL/min/kg.

Regarding `N#Cc1cc(C2=Nc3ccc(Br)cc3NC(=O)C2)ccn1` [Compound 111], the “effect on the glutamate CRC (progressive fold-shift)” value at mGlu3 is “characteristic rightward shift and depressed glutamate maximum”.

Consider `N[C@]1(C(=O)O)[C@H]2[C@@H](C[C@H]1OCc1ccc(Cl)c(Cl)c1)[C@]2(F)C(=O)O` [Compound 2], for which the “efficacy in FST” value with immobility time [11] is on record as “efficacy”. Moreover, the “inhibition of marble burying” value with marble burying [12] was “previously shown to inhibit marble burying”.

As for `COc1ccc(C#Cc2ccc(C(=O)N3CCC[C@@H](O)C3)c(F)c2)cc1` [Compound 8], at rat mGlu5 [14], the “mGlu5 activity” value is “devoid of both mGlu2 and mGlu5 activity”. Further, the “mGlu2 activity” value at rat mGlu2 [9] is “devoid of both mGlu2 and mGlu5 activity”.

`C[C@@H]1CN(c2ccc(F)cc2)C(=O)c2cc(COc3ccc(Cl)cn3)nn21` [Compound 48] showed a half-life in [10] of approximately 120 min.

For `C[C@@H]1CN(c2ccccn2)C(=O)c2cc(COc3ccc(Cl)cn3)nn21` [Compound 100], the “mGlu5 pEC50 (± SEM)” value on rat mGlu5 [1] is given as less than 4.5. Besides, in data set [2], the “rat CLhep” value is 69.5 mL/min/kg. Moreover, the “mGlu3 pIC50 (± SEM)” value at rat mGlu3 [3] came to 6.48 ± 0.07.

By half-life is commonly meant the time needed for the level to fall by half in the phase considered. A low value points to rapid decline. For orientation: IC50 means the point on the concentration scale where inhibition reaches its midpoint.
